Patent US4432983A (Research Corporation, priority 1981, dated 1984)
“Also recorded” adds a separate entry of the source. Values belong to the molecule of their own block, whether it stands above or below them.

Columns and labels:
[1] = target: T1, histamine H2-receptor (isolated guinea pig right atrium) (Cavia porcellus, UniProt P47747); test: Histamine H2-receptor antagonism: histamine-induced chronotropic response of isolated guinea pig right atrium; conditions: for ED50 of histamine (95% CL): histamine ED50 for increase in heart rate, 10^-6 M propranolol; for ED50 of histamine (95% CL) / Slope (95% CL): alone (control) or in presence of 10^-6 M compound, 95% CL in brackets; for slope / shift of the histamine log dose-response curve in presence of compound / histamine H2-receptor antagonist activity: result in words; for histamine H2-receptor antagonist activity: 10^-6 M, guinea pig right atrium; for Slope (95% CL): slope of histamine log dose-response regression line; for ED50 of histamine on the right atrium: histamine alone or with 10^-6 M antagonist, ± as printed in text
T1 construct: All other tissue was carefully trimmed away, leaving only the right atrium; from tissue; host or cells: isolated right atrium of guinea pig (Hartley strain) heart
T1 sequence (P47747 whole entry): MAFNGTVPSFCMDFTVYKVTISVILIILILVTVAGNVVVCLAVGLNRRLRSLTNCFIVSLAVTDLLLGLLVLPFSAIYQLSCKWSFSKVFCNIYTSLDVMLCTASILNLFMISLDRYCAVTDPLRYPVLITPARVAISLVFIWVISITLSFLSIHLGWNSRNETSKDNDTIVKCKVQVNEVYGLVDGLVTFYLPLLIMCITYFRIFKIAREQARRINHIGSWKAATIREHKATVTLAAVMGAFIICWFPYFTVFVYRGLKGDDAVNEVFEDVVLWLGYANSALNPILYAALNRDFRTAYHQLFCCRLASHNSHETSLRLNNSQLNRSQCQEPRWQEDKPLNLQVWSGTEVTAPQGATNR
Procedure: Guinea pigs (Hartley strain) of either sex (400-700 g) were allowed at least two weeks acclimation period. The animals were housed two per cage in wire-meshed bottom stainless steel cages in animal quarters maintained on a 12 hour light:12 hour dark cycle with ambient temperature of approximately 24° C. Food (Ralston-Purina guinea pig chow #5025) and water were provided ad libitum.
(§1) The animals were stunned by a blow to the head and the heart was quickly removed and placed in Tyrode's solution (composition in g/L of distilled water: NaCl, 8.00; KCl, 0.20; MgSO4.7 H2 O, 0.10; CaCl2, 0.20; NaH2 PO4, 0.05; NaHCO3, 1.00; glucose, 1.00) at room temperature. All other tissue was carefully trimmed away, leaving only the right atrium. The base of the atrium was attached to a fixed pin in a 50 mL Magnus bath of the overflow type, while the atrial apex was similarly connected to a physiograph (Narco Bio-Systems) via a photoelectric force transducer (Narco Bio-Systems, sensitivity=0.05 g/cm). A 400 mg tension was constantly applied to the tissue. The Magnus bath was surrounded by water maintained at 37° C. with a constant temperature circulating pump. The bath was continually oxygenated (95% O2, 5% CO2) via a sintered glass gas delivery tube directly beneath the tissue support base.
Propanolol (1×10^-6 M) was added to each preparation in order to eliminate the influence of endogenously stored catecholamine release. Following the addition of propanolol, test compound was added and the tissue was allowed to equilibrate for 30 minutes.
Solutions of the test compounds were similarly prepared.
A straight line was fitted to the data points of each determination within each group by linear regression analysis. The slope and the ED50 were calculated from the regression line, the slopes and ED50 values of each group were averaged, and the standard deviations were calculated. Calculation of the linear regression gave values for the correlation coefficient (r) slope, average of x values, average of y values, and log ED50. With this information a straight line representing a mean of the data from the separate determinations of each group could be plotted, i.e. a straight line passing through the mean x value and the mean y value and having the mean slope. The 95 percent confidence limits were calculated using the following formula: confidence limits=±ts√N where t=Student's t value, s=standard deviation, and N=number of determinations.

[2] = target: histamine H1-receptor (isolated guinea pig ileum) (Cavia porcellus, UniProt P31389); test: Histamine H1-receptor antagonism: histamine-induced contraction of isolated guinea pig ileum; conditions: result in words, 1×10^-6 M
histamine H1-receptor (isolated guinea pig ileum), sequence (P31389 whole entry): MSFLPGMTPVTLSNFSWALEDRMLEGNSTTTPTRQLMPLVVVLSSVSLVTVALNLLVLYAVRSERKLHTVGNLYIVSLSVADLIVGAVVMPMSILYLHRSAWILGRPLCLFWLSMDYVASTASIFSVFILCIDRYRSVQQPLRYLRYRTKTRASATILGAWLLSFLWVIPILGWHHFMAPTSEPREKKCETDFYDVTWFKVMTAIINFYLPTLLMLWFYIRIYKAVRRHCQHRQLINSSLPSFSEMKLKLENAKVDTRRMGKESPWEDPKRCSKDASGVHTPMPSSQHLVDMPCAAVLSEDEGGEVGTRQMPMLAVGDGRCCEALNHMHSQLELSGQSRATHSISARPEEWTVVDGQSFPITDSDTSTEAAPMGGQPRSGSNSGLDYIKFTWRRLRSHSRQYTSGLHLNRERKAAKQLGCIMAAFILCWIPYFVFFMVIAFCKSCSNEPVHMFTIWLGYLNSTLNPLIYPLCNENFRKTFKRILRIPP
Procedure: Compounds 11, 17, 18, and 19 were screened for H1 -antihistaminic activity by observing if any significant blockage of histamine-induced contraction of the isolated guinea pig ileum occurred. After sacrificing the guinea pig by a blow to the head, longitudinal segments of the terminal ileum were removed and freed of mesentery and blood vessels. The same apparatus and physiological solution employed in the atrial preparation were used in these experiments. The tissue was loaded with a 500 mg tension and adjustments were made repeatedly until the baseline stabilized at this tension load. Atropine sulfate (1×10^-6 M) was added to block the influence of endogenously stored acetylcholine and the preparation was allowed to equilibrate for 15 minutes before any other compounds were added. The concentration of test compound used was 1×10^-6 M. Visual determination of the absence of significant reduction in histamine-induced contractions of the ileum in the presence and absence of each test compound was interpreted as an absence of H1 -antihistaminic activity. Generally, H1 -antagonism is considered to be potent if significant reduction in ileal contractility occurs with antagonist concentrations less than micromolar.

[3] = tested on: isolated right atrium; test: Agonist activity: effect of compound alone on heart rate or force of isolated right atrium; parameters: species or system guinea pig; conditions: cumulative additions, 10^-5 to 10^-3 M
Procedure: as §1
A KB value was not calculated since the utility of these values is contingent upon the presence of competitive inhibition. […] A non-competitive component of the antagonism would be expected to depress the curve. […] An additional experiment adding only 11 to the bath was carried out in an attempt to detect possible interfering agonist activity. […] The reason for this atypical curve is not known.

[4] = tested on: H2-receptor (guinea pig isolated right atrium); conditions: cited from earlier work
[5] = tested on: histamine-induced gastric acid secretion; conditions: dogs; cited from earlier work
[6] = tested on: peptic ulcers; conditions: cited from earlier work
[7] = target: H2-receptor; conditions: previously reported; read-out: KB (apparent dissociation constant), previously reported; cited from earlier work

Structure (SMILES): CNC(=S)N[C@@H]1C[C@H]2CC[C@@H](C1)N2Cc1nc[nH]c1C [Compound 11, N-Methyl-N'-[8-(5-methylimidazol-4-yl)methyl-1αH,5αH-nortropan-3β-yl]thiourea]
maximum response obtained with histamine in presence of compound ([1]; 10^-6 M compound): 100% | ED50 of histamine (95% CL) [1]: 40.7 (27.5-60.3) × 10^-7 M | slope / shift of the histamine log dose-response curve in presence of compound ([1]; 10^-6 M compound): significantly steeper (P<0.05) than for metiamide; also recorded: shifted to higher concentrations | histamine H2-receptor antagonist activity [1]: active; also recorded: approximately the same antagonist activity as metiamide | histamine H2-receptor antagonist activity ([1]; listed as β-isomer): high H2 -antagonist activity | Slope (95% CL) [1]: 0.99 (0.95-1.03) | H1-antihistaminic activity [2]: none of these compounds demonstrated significant H1 -antihistiminic activity | effect on heart rate or force of isolated right atrium, compound alone [3]: without effect on heart rate or force

Structure (SMILES): CNC(=S)N[C@H]1C[C@H]2CC[C@@H](C1)N2Cc1nc[nH]c1C [Compound 17, N-Methyl-N'-[8-(5-methylimidazol-4-yl)methyl-1αH,5αH-nortropan-3α-yl]thiourea]
ED50 of histamine (95% CL) [1]: 11.0 (4.37-27.5) × 10^-7 M | histamine H2-receptor antagonist activity [1]: without any significant activity; also recorded: None of these compounds demonstrated significant histamine antagonist activity | Slope (95% CL) [1]: 0.64 (0.18-1.10) | H1-antihistaminic activity [2]: None of these compounds demonstrated significant histamine antagonist activity

Structure (SMILES): CNC(=NC#N)N[C@H]1C[C@H]2CC[C@@H](C1)N2Cc1nc[nH]c1C [Compound 18, N"-Cyano-N-methyl-N'-[8-(5-methylimidazol-4-yl)methyl-1αH,5αH-nortropan-3α-yl]guanidine]
ED50 of histamine (95% CL) [1]: 11.0 (5.01-24.0) × 10^-7 M | histamine H2-receptor antagonist activity [1]: without significant activity; also recorded: None of these compounds demonstrated significant histamine antagonist activity | Slope (95% CL) [1]: 0.64 (0.18-1.10) | H1-antihistaminic activity [2]: None of these compounds demonstrated significant histamine antagonist activity

Structure (SMILES): CNC(=NC#N)N[C@@H]1C[C@H]2CC[C@@H](C1)N2Cc1nc[nH]c1C [Compound 19, N"-Cyano-N-methyl-N'-[8-(5-methylimidazol-4-yl)methyl-1αH,5αH-nortropan-3β-yl]guanidine]
ED50 of histamine (95% CL) [1]: 6.92 (0.22-138.0) × 10^-7 M | histamine H2-receptor antagonist activity [1]: without significant activity; also recorded: None of these compounds demonstrated significant histamine antagonist activity | Slope (95% CL) [1]: 0.58 (0.23-0.93) | H1-antihistaminic activity [2]: None of these compounds demonstrated significant histamine antagonist activity

Structure (SMILES): CNC(=C[N+](=O)[O-])NCCSCc1ccc(CN(C)C)o1 [Ranitidine]
H2 antagonism [4]: competitive antagonist, more potent than cimetidine | prevention of histamine-induced gastric acid secretion [5]: more potent than cimetidine

Structure (SMILES): CN/C(=N/CCSCc1nc[nH]c1C)NC#N [cimetidine, reference compound]
ED50 of histamine (95% CL) [1]: 49.0 (43.7-55.0) × 10^-7 M | ED50 of histamine on the right atrium [1]: 49.0±12.0 ×10^-7 M | histamine H2-receptor antagonist activity [1]: significant antagonism of the chronotropic effect of histamine | Slope (95% CL) [1]: 0.67 (0.28-1.06) | safety in clinical use [6]: generally a safe agent

Structure (SMILES): NCCc1c[nH]cn1 [histamine, reference compound]
Slope (95% CL) [1]: 0.63 (0.50-0.76)

Kb ([1]; KB=[B]/(dose ratio-1), 10^-6 M antagonist, read-out: KB (apparent dissociation constant)): 200 nM | ED50 of histamine on the right atrium [1]: 49.0±12.0 ×10^-7 M | Slope (95% CL) [1]: 0.47 (0.41-0.53)
Structure (SMILES): CNC(=S)NCCSCc1nc[nH]c1C [metiamide, reference compound]
ED50 of histamine (95% CL) [1]: 49.0 (30.9-77.6) × 10^-7 M | slope / shift of the histamine log dose-response curve in presence of compound ([1]; 10^-6 M compound): parallel shift of the dose-response curves of histamine | histamine H2-receptor antagonist activity [1]: significant antagonism of the chronotropic effect of histamine | healing of peptic ulcers ([6]; clinical trials): effective in promoting the healing of peptic ulcers | safety in clinical use [6]: found to produce agranulocytosis | Kb [7]: 920 nM
